Tests used:
[1] = Antiprion activity against mouse prion protein RML infected mouse ScN2a cells assessed as reduction of PrPSc level by Western blot method; type: cell-based
[2] = target: Major prion protein (Homo sapiens) (UniProt P04156); assay: Binding affinity to truncated human PrP 121-231 at 50 uM by surface plasmon resonance method
[3] = test system: ScN2a; assay: Antiprion activity against mouse prion protein RML infected mouse ScN2a cells assessed as drug level required for more than 99 percent reduction of PrPSc level by Western blot method; type: cell-based
[4] = Cytotoxicity against mouse N2A cells assessed as maximal tolerant concentration; type: cell-based; details: read-out: MTD
[5] = test system: N167; assay: Antiprion activity against mouse prion protein 22L infected mouse N167 cells assessed as drug level required for more than 99 percent reduction of PrPSc level by Western blot method; type: cell-based
[6] = test system: N2a #58 F3; assay: Antiprion activity against human prion protein Fukuoka-1 infected mouse F3 cells assessed as drug level required for more than 99 percent reduction of PrPSc level by Western blot method; type: cell-based
[7] = Antiprion activity against human prion protein Fukuoka-1 infected mouse F3 cells assessed as reduction of PrPSc level by Western blot method; type: cell-based; details: N2a #58 F3
[8] = Antiprion activity against mouse prion protein 22L infected mouse N167 cells assessed as reduction of PrPSc level by Western blot method; type: cell-based
[9] = Effective permeability of the compound at pH 7.4 at 30 to 50 uM by PAMPA assay; type: ADME; details: read-out: Peff
[10] = Solubility of the compound in phosphate buffer at 50 uM; type: physicochemical
[11] = test system: human MDR1; type: ADME, cell-based, Canis lupus familiaris; details: dog, MDCK-MDR1
[12] = Permeability from basolateral to apical side of in wild type MDCK cells assessed as mass balance at 10 uM after 2 hrs; type: ADME, cell-based, Canis lupus familiaris; details: dog, read-out: permeability
[13] = test system: MDCK; assay: Permeability from basolateral to apical side of in wild type MDCK cells assessed as cell retention at 10 uM after 2 hrs; type: ADME, cell-based, Canis lupus familiaris; details: dog
[14] = test system: human MDR1; assay: Permeability from basolateral to apical side of in MDCK cells overexpressing human MDR1 assessed as mass balance at 10 uM after 2 hrs; type: ADME, cell-based, Canis lupus familiaris; details: dog, read-out: permeability
[15] = test system: MDCK; type: ADME, cell-based, Canis lupus familiaris; details: dog, 2 h, 10 µM
[16] = Permeability from apical to basolateral side of in wild type MDCK cells assessed as mass balance at 10 uM after 2 hrs; type: ADME, cell-based, Canis lupus familiaris; details: dog, read-out: permeability
[17] = test system: human MDR1; assay: in vitro; details: dog, MDCK-MDR1
[18] = test system: MDCK; assay: Permeability from basolateral to apical side of in wild type MDCK cells assessed as adsorption on transwell at 10 uM after 2 hrs; type: ADME, cell-based, Canis lupus familiaris; details: dog
[19] = test system: MDCK; assay: Permeability from apical to basolateral side of in wild type MDCK cells assessed as cell retention at 10 uM after 2 hrs; type: ADME, cell-based, Canis lupus familiaris; details: dog
[20] = test system: MDCK; assay: Permeability from apical to basolateral side of in wild type MDCK cells assessed as adsorption on transwell at 10 uM after 2 hrs; type: ADME, cell-based, Canis lupus familiaris; details: dog
[21] = test system: MDCK; assay: Permeability from basolateral to apical side of in P-glycoprotein-mediated MDCK cells over expressing human MDR1 assessed as cell retention at 10 uM after 2 hrs; type: ADME, cell-based, Canis lupus familiaris; details: dog
[22] = test system: human MDR1; type: ADME, cell-based, Canis lupus familiaris; details: dog, MDCK-MDR1; remark: listed apart in the source
[23] = test system: human MDR1; type: ADME, cell-based, Canis lupus familiaris; details: dog, MDCK-MDR1; read-out: permeability
[24] = test system: MDCK; type: ADME, cell-based, Canis lupus familiaris; details: dog, 2 h, 10 µM; remark: listed apart in the source
[25] = test system: MDCK; assay: Permeability from apical to basolateral side of in P-glycoprotein-mediated MDCK cells over expressing human MDR1 assessed as cell retention at 10 uM after 2 hrs; type: ADME, cell-based, Canis lupus familiaris; details: dog
[26] = in vitro; details: dog, MDCK

Compound	EC50 [1]	RUmax [2]	Activity [3]	MNTC [4]	Activity [5]	Activity [6]	EC50 [7]	EC50 [8]	Papp at up to 50 µM [9]	other results
Clc1ccc2c(NC3CCN(Cc4ccccc4)CC3)ccnc2c1	150 nM	114%	1 µM	> 10 µM	2 µM	3 µM	1200 nM	230 nM	–	–
COc1ccc2nc3cc(Cl)ccc3c(NCCCN(C)C)c2c1	–	164%	–	–	–	–	–	–	13.3 ×10⁻⁶ cm/s	–
COc1ccc2nc3cc(Cl)ccc3c(NCC#CCN3CCN(C)CC3)c2c1	27 nM	–	1 µM	8 µM	3 µM	–	–	990 nM	11.5 ×10⁻⁶ cm/s	solubility [10]: Insoluble
COc1ccc2nc3cc(Cl)ccc3c(Nc3ccccc3)c2c1	540 nM	–	–	5 µM	–	–	–	–	–	solubility [10]: Insoluble
COc1ccc2nc3cc(Cl)ccc3c(Nc3ccc(N4CCN(C)CC4)cc3)c2c1	100 nM	120%	0.4 µM	2.5 µM	1.5 µM	1.5 µM	680 nM	420 nM	8.13 ×10⁻⁶ cm/s	Papp B→A at 2 h, 10 µM [11]: 0.34 ×10⁻⁶ cm/s; recovery at 2 h, 10 µM [12]: 75.3%; permeability [13]: 27.5%; recovery at 2 h, 10 µM [14]: 73%; permeability [15]: 6.1%; recovery at 2 h, 10 µM [16]: 11.3%; efflux ratio at 2 h, 10 µM [17]: 2.4; permeability [18]: 3.5%; permeability [19]: 66.4%; permeability [20]: 11.4%; permeability [21]: 44.2%; Papp A→B at 2 h, 10 µM [22]: 0.14 ×10⁻⁶ cm/s; recovery at 2 h, 10 µM [23]: 12.6%; permeability [24]: 3.1%; permeability [25]: 67%; efflux ratio at 2 h, 10 µM [26]: 1.2
COc1ccc2nc3cc(Cl)ccc3c(NC3CCN(Cc4ccc(C#N)cc4)CC3)c2c1	550 nM	109%	1 µM	5 µM	1 µM	–	–	140 nM	9.15 ×10⁻⁶ cm/s	–
COc1ccc(CN2CCC(Nc3c4ccc(Cl)cc4nc4ccc(OC)cc34)CC2)cc1	82 nM	160%	1.5 µM	10 µM	2 µM	–	–	520 nM	7.54 ×10⁻⁶ cm/s	–
CCN(CC)CCNc1c2ccc(Cl)cc2nc2ccc(OC)cc12	–	153%	–	–	–	–	–	–	21 ×10⁻⁶ cm/s	–
COc1ccc2nc3cc(Cl)ccc3c(NC3CC4CCC(C3)N4Cc3ccccc3)c2c1 (stereo not given)	54 nM	–	2 µM	2 µM	1 µM	1.5 µM	540 nM	350 nM	8.31 ×10⁻⁶ cm/s	solubility [10]: Insoluble
Cn1c(=O)c2c(ncn2C)n(C)c1=O [CAFFEINE]	–	–	–	–	–	–	–	–	2.46 ×10⁻⁶ cm/s	–
COc1ccc2nc3cc(Cl)ccc3c(Nc3ccc(CN4CCCCC4)cc3)c2c1	99 nM	144%	0.5 µM	5 µM	1 µM	3 µM	640 nM	510 nM	5.28 ×10⁻⁶ cm/s	–
COc1ccc2nc3cc(Cl)ccc3c(NC3CCN(Cc4ccc(C)cc4)CC3)c2c1	150 nM	69.8%	3 µM	5 µM	1 µM	3 µM	630 nM	620 nM	–	–
COc1ccc2nc3cc(Cl)ccc3c(NC3CCN(Cc4ccc(Cl)cc4)CC3)c2c1	280 nM	98.3%	1 µM	12 µM	3 µM	–	–	340 nM	15.5 ×10⁻⁶ cm/s	–
CCN(CC)CCCCNc1c2ccc(Cl)cc2nc2ccc(OC)cc12	–	178%	–	–	–	–	–	–	16.4 ×10⁻⁶ cm/s	–
COc1ccc2nc3cc(Cl)ccc3c(Nc3ccc(N4CCN(C(C)=O)CC4)cc3)c2c1	35 nM	210%	0.1 µM	5 µM	–	–	–	–	8.79 ×10⁻⁶ cm/s	–
C=C[C@H]1C[N@@]2CC[C@H]1C[C@@H]2[C@@H](O)c1ccnc2ccc(OC)cc12 [QUINIDINE]	–	–	–	–	–	–	–	–	–	Papp [9]: 11.5 ×10⁻⁶ cm/s
COc1ccc2nc3cc(Cl)ccc3c(NC3CCN(Cc4ccccc4)CC3)c2c1	420 nM	65.4%	1 µM	2 µM	1.5 µM	–	800 nM	490 nM	–	–
Clc1ccc2c(NC3CCN(Cc4ccccc4)CC3)c3c(nc2c1)CCCC3	540 nM	138%	1 µM	5 µM	3 µM	5 µM	1190 nM	420 nM	–	–
COc1ccc2nc3cc(Cl)ccc3c(N(C)c3ccccc3)c2c1	2510 nM	43.2%	5 µM	8 µM	–	–	–	–	–	–
CCN(CC)CCCC(C)Nc1c2ccc(Cl)cc2nc2ccc(OC)cc12 (stereo not given) [QUINACRINE]	230 nM	87.3%	0.8 µM	2.5 µM	–	–	–	590 nM	19.3 ×10⁻⁶ cm/s	Papp B→A at 2 h, 10 µM [11]: 6.7 ×10⁻⁶ cm/s; permeability [13]: 27.7%; permeability [15]: 5.5%; permeability [18]: 3.2%; permeability [19]: 80.2%; permeability [20]: 5.3%; permeability [21]: 24.5%; Papp A→B at 2 h, 10 µM [22]: 1.23 ×10⁻⁶ cm/s; permeability [24]: 3.9%; permeability [25]: 35.5%
CCN1CCN(c2ccc(Nc3c4ccc(Cl)cc4nc4ccc(OC)cc34)cc2)CC1	80 nM	194%	1 µM	3 µM	–	–	–	960 nM	6.13 ×10⁻⁶ cm/s	–
COc1ccc2nc3cc(Cl)ccc3c(NC3CCN(CCc4ccccc4)CC3)c2c1	130 nM	174%	0.5 µM	2 µM	1 µM	2 µM	190 nM	230 nM	7.68 ×10⁻⁶ cm/s	–
COc1ccc2nc3cc(Cl)ccc3c(N)c2c1	–	139%	–	–	–	–	–	–	14.8 ×10⁻⁶ cm/s	–
COc1ccc2nc3cc(Cl)ccc3c(Nc3ccc(CN4CCN(C)CC4)cc3)c2c1	60 nM	207%	0.5 µM	4 µM	2 µM	3 µM	860 nM	350 nM	–	–
CN1CCN(c2ccc(Nc3ccnc4cc(Cl)ccc34)cc2)CC1	140 nM	165%	1 µM	10 µM	2 µM	–	2040 nM	530 nM	–	–
COc1ccc2nc3cc(Cl)ccc3c(Nc3ccc(C(=O)N4CCN(C)CC4)cc3)c2c1	1230 nM	232%	5 µM	12 µM	7 µM	–	4100 nM	4200 nM	–	–
CCN(CC)CCCNc1c2ccc(Cl)cc2nc2ccc(OC)cc12	–	162%	–	–	–	–	–	–	22 ×10⁻⁶ cm/s	–
COc1ccc2nc3cc(Cl)ccc3c(NC3CCN(CCc4ccc(C)cc4)CC3)c2c1	76 nM	148%	1 µM	3 µM	1 µM	3 µM	690 nM	300 nM	7.39 ×10⁻⁶ cm/s	–
COc1ccc2nc3cc(Cl)ccc3c(NC3CCN(CCCc4ccccc4)CC3)c2c1	93 nM	115%	1 µM	4 µM	1 µM	3 µM	1040 nM	320 nM	–	–
CN1CCN(c2ccc(Nc3c4c(nc5cc(Cl)ccc35)CCCC4)cc2)CC1	82 nM	127%	1 µM	> 10 µM	–	–	–	–	–	–

From ChEMBL document CHEMBL2150853 (Eur J Med Chem, 2011)
